# Key:
# Type in all cases: cell-based
# NCX1 N124G = biological target: T1, NCX1 N124G (Canis lupus familiaris, UniProt P23685, N157G); assay: NCX1 point mutant activity (45Ca2+ uptake and Fura-2); details: single mutation, functional exchanger
# T1 construct: expressed in transfected cells
# Protocol: (§1) To identify the critical residues involved in drug sensitivity between NCX1 and NCX3 proteins, each residue in NCX1, in the regions α1 and α2, was substituted with the corresponding residue in NCX3.
# (§2) All experiments aimed to identify the binding site of neurounina-1 were performed on BHK cells stably transfected with a single NCX chimera or mutant.
# (§3) The activity of the Na^+/Ca^2+ exchanger was measured by means of ^45Ca^2+ radiotracer variations in the cytoplasm of cells exposed to a protocol stimulating the forward or the reverse mode of the antiporter. The BHK cells expressing each mutated or non-mutated NCX isoform were cultured in 12-well dishes and incubated in 145 mM NaCl for 10 minutes and then in a medium containing only 145 mM N-Methyl D-glucamine (NMDG) and 10 µM of ^45Ca^2+. This rapid substitution of the medium from a high level of Na^+ to another one without Na^+ allow the ^45Ca^2+ influx (reverse mode). Before the medium substitution cells was incubated with 1 mM ouabain, a Na^+/K^+ pump inhibitor, and 10 µM monensin, a ionophore for extracellular Na^+. […] The medium was removed and cells were subsequently lysed with 0.1 N NaOH and aliquots were taken to determine radioactivity and protein content.
# (§4) Briefly, BHK cells wild type and/or BHK trasnsfected with NCX mutants, grown on glass coverslips, were loaded with Fura-2 acetoxymethyl ester (Fura-2AM) (10 µM) for 30 minutes at 37°C in normal Krebs solution containing the following (in mM): 5.5 KCI, 160 NaCl, 1.2 MgCl2, 1.5 CaCl2, 10 glucose, and 10 Hepes-NaOH, pH 7.4. […] Fura-2 fluorescence intensity was measured every 3 seconds. […] NCX activity was evaluated as Ca2+ uptake through the reverse mode by switching the normal Krebs medium containing thapsigargi (1µM) to Na^+-deficient NMDG+ medium (Na^+-free) containing (in mM): 5.5 KCI, 147 N-Methyl glucamine, 1.2 MgCl2, 1.5 CaCl2, 10 glucose, and 10 Hepes-NaOH (pH 7.4). All the results are presented as percentage of cytosolic Ca^2+ concentration increase above basal values and expressed as mean± S.E.M.
# NCX1 V117L = biological target: T2, NCX1 V117L (Canis lupus familiaris, UniProt P23685, V150L); assay: as above; details: single mutation, functional exchanger
# T2 construct: expressed in transfected cells
# Protocol: as §1, §2, §3, §4
# NCX1 L808F = biological target: T3, NCX1 L808F (Canis lupus familiaris, UniProt P23685, L840F); assay: as above; details: single mutation, functional exchanger
# T3 construct: expressed in transfected cells
# Protocol: as §1, §2, §3, §4
# rat cortical neurons = assay: Oxygen and glucose deprivation (OGD) followed by reoxygenation; details: 10 nM; 3 hours OGD followed by 21 hours of reoxygenation
# Protocol: The effect of neurounina-1 was evaluated on cell viability by using rat primary cortical neurons obtained as follow. Briefly, cortical neurons were prepared from brains of 1-2 day-old new-born rats, anaesthetizes with halothane in a glass chamber and decapitated. Dissection and dissociation were performed in a Ca^2+-Mg^2+-free PBS containing glucose. The brain was removed from the skull and the cerebral cortex was removed. Cerebral cortex was first digested enzymatically and after dispersed mechanically by trituration. Cellular suspension was plated on coverslips previously pre-coated with poly-D-lysine 1mg/ml and cultured in "Neurobasal" medium containing B27 (1:50) and Glutamax)1:100).
# The oxygen and glucose deprivation (OGD) was used as a model to reproduce in vitro a condition similar to that observed in vivo when a cerebral vessel was occluded as it occurs in stroke. Briefly, cells were incubated in a medium oxygen and glucose-free and containing: NaCl 116 mM, KCI 5.4 mM, MgSO4 0.8 mM, NaHCO3 26.2 mM, NaH2PO4 1 mM, CaCl2 1.8 mM, glycin 0.01 mM e phenol 0.001 mM (w/v) (Molinaro et al., 2008). This medium was previously saturated with 1 atm of a gas containing 95% N2 and 5% CO2 for 20 minutes. […]
# T1 sequence (P23685 33-970 N157G): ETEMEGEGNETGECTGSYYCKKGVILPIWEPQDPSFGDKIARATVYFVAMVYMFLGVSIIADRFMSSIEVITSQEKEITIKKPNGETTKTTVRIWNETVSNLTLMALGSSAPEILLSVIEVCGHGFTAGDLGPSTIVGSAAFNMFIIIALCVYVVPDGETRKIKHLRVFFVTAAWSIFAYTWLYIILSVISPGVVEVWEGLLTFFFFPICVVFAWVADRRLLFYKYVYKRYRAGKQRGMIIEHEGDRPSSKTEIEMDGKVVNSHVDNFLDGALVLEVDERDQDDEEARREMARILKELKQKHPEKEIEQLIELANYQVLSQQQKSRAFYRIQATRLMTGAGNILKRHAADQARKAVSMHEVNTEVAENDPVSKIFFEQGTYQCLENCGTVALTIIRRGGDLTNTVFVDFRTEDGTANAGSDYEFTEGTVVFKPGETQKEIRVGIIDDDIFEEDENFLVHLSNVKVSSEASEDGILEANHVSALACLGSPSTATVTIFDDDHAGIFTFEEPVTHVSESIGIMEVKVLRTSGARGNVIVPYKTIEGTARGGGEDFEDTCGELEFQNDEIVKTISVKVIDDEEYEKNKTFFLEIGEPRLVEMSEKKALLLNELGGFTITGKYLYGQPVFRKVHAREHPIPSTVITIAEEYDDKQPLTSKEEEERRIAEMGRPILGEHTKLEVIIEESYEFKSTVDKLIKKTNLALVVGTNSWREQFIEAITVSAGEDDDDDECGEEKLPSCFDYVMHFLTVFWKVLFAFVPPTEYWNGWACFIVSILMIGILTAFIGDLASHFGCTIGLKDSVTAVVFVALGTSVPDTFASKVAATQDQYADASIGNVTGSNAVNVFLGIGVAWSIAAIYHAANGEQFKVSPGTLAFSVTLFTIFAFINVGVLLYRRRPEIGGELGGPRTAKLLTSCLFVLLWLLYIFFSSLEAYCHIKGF
# T2 sequence (P23685 33-970 V150L): as the sequence (P23685 33-970 N157G) above, with V118L, G125N counted along it
# T3 sequence (P23685 33-970 L840F): as the sequence (P23685 33-970 N157G) above, with G125N, L808F counted along it
structure (smiles),measurement,setting,value
"O=C1CN=C(c2ccccc2)c2cc([N+](=O)[O-])ccc2N1CN1CCCC1 [neurounina-1, 7-nitro-5-phenyl-1-(pyrrolidin-1-ylmethyl)-1H-benzo[e][1,4]diazepin-2(3H)-one]",sensitivity of NCX1 mutant N124G,NCX1 N124G,insensible
same,sensitivity of NCX1 mutant V117L,NCX1 V117L,insensible
same,sensitivity of NCX1 mutant L808F,NCX1 L808F,insensible
same,cell death of rat cortical neurons,rat cortical neurons,reduced cell death
